Reference: patent EP4205737A1, “COMPOSITION FOR PREVENTION, AMELIORATION, OR TREATMENT OF INFLAMMATORY DISEASES OR IMMUNE DISEASES COMPRISING GANCAONIN N AS ACTIVE INGREDIENT” (UNIVERSITY-INDUSTRY COOPERATION GROUP OF KYUNG HEE …, priority 2020, dated 2022)

Key:
TNF-α [1] = assay: Real-time PCR of TNF-α mRNA in LPS-stimulated A549 cells; type: cell-based, human; settings: LPS 5 ug/mL, 5 to 40 µM, 24 hours, effect proportional to amount (FIG. 3A)
Experimental: (§1) A549 cells were dispensed into 6-well plates (1 × 10^6 cells/well) and cultured under conditions of 37°C and 5% CO2. After the culturing, the A549 cells were treated with of 5 ug/mL of lipopolysaccharide (LPS) and with 5 µM to 40 µM of gancaonin N, and the cells were then cultured for 24 hours. Afterwards, total RNA was isolated from each treated cell using Hybrid-RTM (GeneAll, South Korea). The isolated total RNA (500 ng) was converted to cDNA sequentially through incubation at 55°C for 60 minutes using oligo (dT) and incubation at 85°C for 5 minutes, and the cDNA was stored at 4°C until being used. In addition, real-time quantitative PCR was performed using Universal SYBR Green Master Mix (Applied Biosystems, USA), and the cDNA was amplified under conditions described below. 95°C for 15 minutes, then 95°C for 30 seconds, 59°C for 30 seconds, and 72°C for 30 seconds were repeated 40 times. […]
(§2) To investigate the inhibitory effect of gancaonin on the expression levels of pro-inflammatory cytokines, the mRNA expression levels of tumor necrosis factor-α (hereinafter referred to as TNF-α), interleukin-1 beta (hereinafter referred to as IL-1β), and interleukin 6 (hereinafter referred to as IL-6) which are all known as pro-inflammatory cytokines were measured. […]

IL-6 = assay: Real-time PCR of IL-6 mRNA in LPS-stimulated A549 cells; type: cell-based, human; settings: LPS 5 ug/mL, 5 to 40 µM, 24 hours, effect proportional to amount (FIG. 3C)
Experimental: as §1, §2

IL-1β = assay: Western blotting of IL-1β protein in LPS-stimulated A549 cells; type: cell-based, human; settings: LPS 5 µg/mL, 5 to 40 µM (FIG. 4B)
Experimental: (§3) RAW264.7 cells and A549 cells were dispensed into 6-well plates (1 × 10^6 cells/well) and cultured under conditions of 37°C and 5% CO2. After the culturing, the Raw 264.7 cells were treated with 1 µg/mL of lipopolysaccharide (LPS) and the A549 cells were treated with 5 µg/mL of lipopolysaccharide (LPS) and with 5 µM to 40 µM of gancaonin N, and the cells were cultured for 24 hours or 6 hours. Then, the cells were lysed using a lysis buffer. In addition, the left lung extracted from each mouse was lysed using RIPA buffer. SDS-PAGE electrophoresis was performed on the cell and tissue lysates to separate proteins by side, and 5% bovine serum albumin was used for culturing and for blocking antibodies against PGE2 (1:500), IL-1β (1:500), IL-6 (1:500), TNF-α (1:500), i-NOS (1:500), COX-2 (1:1000), P-ERK1/2 (1:1000), ERK1/2 (1:3000), P-p38 (1:1000), p38 (1:3000), NF-κB p65 (1:1000), Lamin B1 (1:1000), and β-actin (1: 5,000).
(§4) For the pro-inflammatory cytokines whose mRNA expression inhibition was confirmed as above, the expression level of the protein encoded by the mRNA was further checked. To determine the protein expression level, A549 cells were treated with LPS and gancaonin N as described in Examples 1 to 8, and the protein expression levels were checked.

COX-2 [2] = assay: Western blotting of COX-2 protein in LPS-stimulated A549 cells; type: cell-based, human; settings: LPS 5 µg/mL, 5 to 40 µM (FIG. 4D)
Experimental: as §3, §4

[3] = system: LPS-induced acute lung injury (ALI) mouse model; assay: Lung wet/dry ratio measurement (pulmonary edema), LPS-induced acute lung injury mouse model; type: in vivo, BALB/c mice; settings: mice, 10 mg/kg or 30 mg/kg intraperitoneally, LPS-induced ALI (FIG. 7)
Experimental: 25 6-week-old female BALB/c mice having a weight of 18g to 20 g were purchased from BioLink (DBL CO., Eumseong, Chungcheongbuk-do, Korea), and reared in the animal laboratory of KyungHee University. To establish an LPS-induced acute lung injury model, all the mice were divided into five groups each group of which consisted of 5 mice, and the five groups were referred to as control, vehicle (only LPS treatment), gancaonin N (10 mg/kg), gancaonin N (30 mg/kg), and dexamethasone (3 mg/kg). Gancaonin N was intraperitoneally injected at a dose of 10 mg/kg or 30 mg/kg, and dexamethasone was intraperitoneally injected at a dose of 3 mg/kg as a positive control group. In addition, the control and vehicle groups were intraperitoneally injected with 4% DMSO in which gancaonin N was dissolved. […]
To determine the severity of pulmonary edema, the wet weight of the right upper lung was measured, the tissue was dried 60°C for 72 hours, and the dry weight was measured. Afterwards, the W/D ratio was calculated.
The mouse models prepared as described in Examples 1 to 3 were treated with LPS to induce acute lung injury (ALI), and then the anti-inflammatory effect of gancaonin N was specifically evaluated for the mice of five groups (control, vehicle (only LPS), gancaonin N (10 mg/kg), gancaonin N (30 mg/kg), and dexamethasone (3 mg/kg)), […]

COX-2 [4] = assay: Western blotting of COX-2 in lung of LPS-induced acute lung injury mouse model; type: in vivo, BALB/c mice; settings: mice, 10 mg/kg or 30 mg/kg intraperitoneally, LPS-induced ALI, Western blotting (FIG. 8)
Experimental: (§5) 25 6-week-old female BALB/c mice having a weight of 18g to 20 g were purchased from BioLink (DBL CO., Eumseong, Chungcheongbuk-do, Korea), and reared in the animal laboratory of KyungHee University. To establish an LPS-induced acute lung injury model, all the mice were divided into five groups each group of which consisted of 5 mice, and the five groups were referred to as control, vehicle (only LPS treatment), gancaonin N (10 mg/kg), gancaonin N (30 mg/kg), and dexamethasone (3 mg/kg). Gancaonin N was intraperitoneally injected at a dose of 10 mg/kg or 30 mg/kg, and dexamethasone was intraperitoneally injected at a dose of 3 mg/kg as a positive control group. In addition, the control and vehicle groups were intraperitoneally injected with 4% DMSO in which gancaonin N was dissolved. Then, 10 µg/50 µL of LPS was intratracheally administered to the mice except for the control group one hour later (the control group mice were administered 50 µL of PBS), and the mice were sacrificed 12 hours later.
(§6) RAW264.7 cells and A549 cells were dispensed into 6-well plates (1 × 10^6 cells/well) and cultured under conditions of 37°C and 5% CO2. […]
(§7) To specifically investigate whether gancaonin N can inhibit pro-inflammatory factors in a mouse model, the protein expression levels of COX-2, IL-1β, and TNF-α were measured by Western blotting as described in Examples 1 to 6 above.

TNF-α [5] = assay: Western blotting of TNF-α in lung of LPS-induced acute lung injury mouse model; type: in vivo, BALB/c mice; settings: mice, 10 mg/kg or 30 mg/kg intraperitoneally, LPS-induced ALI, Western blotting (FIG. 8)
Experimental: as §5, §6, §7

SMILES: COc1ccc(-c2coc3cc(O)c(CC=C(C)C)c(O)c3c2=O)c(O)c1 [gancaonin N, 5,7-dihydroxy-3-(2-hydroxy-4-methoxyphenyl)-6-(3-methylbut-2-enyl)chromen-4-one]
- mRNA expression of TNF-α (TNF-α [1]): significantly inhibited
- mRNA expression of IL-6 (IL-6): significantly inhibited
- protein expression of IL-1β (IL-1β): significantly inhibited
- protein expression of COX-2 (COX-2 [2]): significantly inhibited
- W/D ratio [3]: significantly lowered
- protein expression level of COX-2 in lung (COX-2 [4]): significantly reduced
- protein expression level of TNF-α in lung (TNF-α [5]): significantly reduced
